Assay results from US7029857B1, “Processes for obtaining compounds employing SNORF72 receptors” (H. Lundbeck A/S, priority 1999, dated 2006).
No end group written: not given here.

Columns and labels:
[1] = target: T1, SNORF72 (Homo sapiens, UniProt Q9GZQ4, A395T); experiment: Intracellular Ca2+ release (FLIPR) in SNORF72-transfected COS-7 cells; format: cell-based; conditions: SNORF72-transfected COS-7 cells, peptides at 300 nM (FIG. 8)
T1 construct: expressed in transfected cells; host or cells: COS-7 (transient, DEAE-dextran)
Target sequence in this assay (Q9GZQ4 whole entry A395T): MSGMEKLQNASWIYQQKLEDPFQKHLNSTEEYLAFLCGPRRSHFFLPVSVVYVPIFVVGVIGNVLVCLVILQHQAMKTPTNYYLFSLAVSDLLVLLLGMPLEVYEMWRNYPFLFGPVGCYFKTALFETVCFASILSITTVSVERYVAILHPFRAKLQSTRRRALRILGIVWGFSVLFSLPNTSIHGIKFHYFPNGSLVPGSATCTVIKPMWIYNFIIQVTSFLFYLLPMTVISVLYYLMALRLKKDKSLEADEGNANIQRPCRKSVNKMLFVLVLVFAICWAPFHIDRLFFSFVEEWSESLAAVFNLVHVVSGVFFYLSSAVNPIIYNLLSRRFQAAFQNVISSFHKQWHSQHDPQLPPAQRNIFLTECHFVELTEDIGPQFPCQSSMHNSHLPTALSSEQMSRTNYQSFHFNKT

[2] = target: T1, SNORF72; experiment: Displacement of [125I]rat NMU-23 binding in SNORF72-transfected COS-7 membranes; conditions: binding affinity, SNORF72-transfected COS-7 cells (Table 1A); read-out: SNORF72 Avg Ki
Method: The specifics of preparing such cell membranes may in some cases be determined by the nature of the ensuing assay but typically involve harvesting whole cells and disrupting the cell pellet by sonication in ice cold buffer (e.g. 20 mM Tris HCl, mM EDTA, pH 7.4 at 4° C.). The resulting crude cell lysate is cleared of cell debris by low speed centrifugation at 200×g for 5 min at 4° C. The cleared supernatant is then centrifuged at 40,000×g for 20 min at 4° C., and the resulting membrane pellet is washed by suspending in ice cold buffer and repeating the high speed centrifugation step. The final washed membrane pellet is resuspended in assay buffer. Protein concentrations are determined by the method of Bradford (1976) using bovine serum albumin as a standard. The membranes may be used immediately or frozen for later use.
Radioligand binding assays were performed by diluting membranes prepared from cells expressing the receptor in 50 mM Tris buffer (pH=7.4 at 0° C.) containing 0.1% bovine serum albumin (Sigma), aprotinin (0.005 mg/ml, Boehringer Mannheim) and bestatin (0.1 mM, Sigma) as protease inhibitors. The final protein concentration in the assay was 12–40 μg/ml. […] The bound ligand was separated from free by filtration through GF/B filters presoaked in 0.5% polyethyleneimine (PEI), using a Tomtec (Wallac) vacuum filtration device. After addition of Ready Safe (Beckman) scintillation fluid, bound radioactivity was quantitated using a Trilux (Wallac) scintillation counter (approximately 40% counting efficiency of bound counts). Data was fit to non-linear curves using GraphPad Prism.
In this manner, agonist or antagonist compounds that bind to the receptor may be identified as they inhibit the binding of the labeled ligand to the membrane protein of cells expressing the said receptor. Non-specific binding was defined as the amount of radioactivity remaining after incubation of membrane protein in the presence of 100 nM of the unlabeled peptide corresponding to the radioligand used. In equilibrium saturation binding assays membrane preparations or intact cells transfected with the receptor are incubated in the presence of increasing concentrations of the labeled compound to determine the binding affinity of the labeled ligand.

[3] = test system: vector-transfected cells; experiment: Intracellular Ca2+ release in vector (mock)-transfected COS-7 cells; format: cell-based; conditions: mock COS-7 cells
Method: A typical protocol for the DEAE-dextran method as applied to COS-7 and HEK293 cells is described as follows. Cells to be used for transfection are split 24 hours prior to the transfection to provide flasks which are 70–80% confluent at the time of transfection. Briefly, 8 μg of receptor DNA plus 8 μg of any additional DNA needed (e.g. Gα protein expression vector, reporter construct, antibiotic resistance marker, mock vector, etc.) are added to 9 ml of complete DMEM plus DEAE-dextran mixture (10 mg/ml in PBS). Cells plated into a T225 flask (sub-confluent) are washed once with PBS and the DNA mixture is added to each flask. The cells are allowed to incubate for 30 minutes at 37° C., 5% CO2. Following the incubation, 36 ml of complete DMEM with 80 μM chloroquine is added to each flask and allowed to incubate an additional 3 hours. The medium is then aspirated and 24 ml of complete medium containing 10% DMSO for exactly 2 minutes and then aspirated. […]
The compounds of interest are diluted in wash buffer (Hank's BSS (without phenol red), 20 mM HEPES, 2.5 mM probenecid) to a 4× final concentration and aliquoted into a clear v-bottom plate (Nunc). […] Compounds are added to the cell plates and responses are measured using the FLIPR™ instrument. The data are then collected and analyzed using the FLIPR™ software and Graphpad Prism. […]

[4] = test system: control oocytes; experiment: Cl- currents in control oocytes lacking injection of foreign mRNA; format: cell-based, Xenopus laevis
Method: In the present invention, oocytes were harvested from Xenopus laevis and injected with mRNA transcripts as previously described (Quick and Lester, 1994; Smith et al., 1997). SNORF62 mRNA transcript was synthesized using the T7 polymerase (“Message Machine”, Ambion) from linearized plasmids or PCR products containing the complete coding region of the gene. Oocytes were injected with 1–50 ng synthetic receptor RNA and incubated for 3–8 days at 17° C. Currents were recorded under dual electrode voltage clamp (Axon Instruments Inc.) with 3 M KCl-filled glass microelectrodes having resistances of 1–2 Mohm. Unless otherwise specified, oocytes were voltage clamped at a holding potential of −80 mV. During recordings, oocytes were bathed in continuously flowing (1–3 mL/min) medium containing 96 mM NaCl, 2 mM KCl, 1.8 mM CaCl2, 1 mM MgCl2, and 5 mM HEPES, pH 7.5 (ND96). Drugs were applied either by local perfusion from a 10 μL glass capillary tube fixed at a distance of 0.5 mm from the oocyte, or by switching from a series of gravity fed perfusion lines.

“FRVDEEFQSPFASQSRGYFLFRPRN-NH2 [human NMU-25, FRVDEEFQSPFASQSRGYFLFRPRN—NH2]” was tested, and the “stimulation of intracellular Ca2+ release” value [1] was “stimulated”, the Ki [2] was 3 nM and the “effect on intracellular Ca2+ release in vector-transfected cells” value [3] was “no significant effect”. The “response in control oocytes” value [4] was “no response”.
